# The source made the active and inactive calls.
# Legend:
# [1] = target: T1, Estrogen receptor beta (Homo sapiens, UniProt Q92731);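 note: recombinant ER-beta bound to coactivator SRC1 peptide in presence of estradiol agonist; inhibitors block coactivator peptide binding and lower the FRET signal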
# [2] = target: T2, Bcl-2-like protein 10 (Homo sapiens, UniProt Q9HD36); test: displacers of TR3 peptide from Bcl-B, primary screen, selectivity assay for Bfl-1 inhibitor project, biochemical, fluorescence polarization, FITC-TR3 peptide (AID 748);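 note: fluorescence polarization from a fluorescein-labelled TR3 peptide binding purified Bcl-B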
# T2 sequence (Q9HD36 whole entry): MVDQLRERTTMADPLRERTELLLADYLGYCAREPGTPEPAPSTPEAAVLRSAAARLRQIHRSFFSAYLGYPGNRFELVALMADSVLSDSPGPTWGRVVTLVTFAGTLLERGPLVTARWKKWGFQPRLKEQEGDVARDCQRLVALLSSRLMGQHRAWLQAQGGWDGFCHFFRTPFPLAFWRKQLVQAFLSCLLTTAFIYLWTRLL
# [3] = target: T1, Estrogen receptor beta; test: ERβ–SRC-3 coactivator interaction inhibitors, confirmation, orthogonal assay, biochemical, ELISA, streptavidin-HRP readout (AID 1060)
# [4] = M. tuberculosis H37Rv growth inhibitors, H37Rv strain (AID 1626); assay type: functional
# [5] = Luminescence Cell-Based Dose Response HTS to Identify Inhibitors of 5'UTR Stem-Loop Driven Prion Protein mRNA Translation in H4 Neuroglioblastoma Cells. [Related pubchem assays: 1827 (Project Summary), 1813 (Primary HTS)]; assay type: functional
# [6] = target: Luciferin 4-monooxygenase (Photinus pyralis, UniProt P08659); test: Counter Screen for Luciferase-based Assay Positives. [Related pubchem assays: 620, 618, 411 ]
# [7] = system: HT-1080; test: cytotoxicity in HT1080 fibrosarcoma cells, cell-based, fluorescence readout (AID 620); assay type: functional; conditions: Homo sapiens
# [8] = inhibitors of SNCA 5'UTR-driven reporter translation, confirmation, H4 neuroglioma cells, luminescence (AID 1988); assay type: functional, cell-based
# [9] = target: T3, Insulin-degrading enzyme (Homo sapiens, UniProt P14735); test: Dose Response: Fluorescence polarization-based cell-based high throughput dose response assay for inhibitors of insulin-degrading enzyme (IDE). [Related pubchem assays: 434962 (Primary screen (IDE inhibitors in singlicate)), 449730 (Counterscreen (Cytotoxicity in triplicate)), 435028 (Confirmation (IDE inhibitors in triplicate)), 434984 (Summary …; assay type: functional
# T3 sequence (P14735 whole entry): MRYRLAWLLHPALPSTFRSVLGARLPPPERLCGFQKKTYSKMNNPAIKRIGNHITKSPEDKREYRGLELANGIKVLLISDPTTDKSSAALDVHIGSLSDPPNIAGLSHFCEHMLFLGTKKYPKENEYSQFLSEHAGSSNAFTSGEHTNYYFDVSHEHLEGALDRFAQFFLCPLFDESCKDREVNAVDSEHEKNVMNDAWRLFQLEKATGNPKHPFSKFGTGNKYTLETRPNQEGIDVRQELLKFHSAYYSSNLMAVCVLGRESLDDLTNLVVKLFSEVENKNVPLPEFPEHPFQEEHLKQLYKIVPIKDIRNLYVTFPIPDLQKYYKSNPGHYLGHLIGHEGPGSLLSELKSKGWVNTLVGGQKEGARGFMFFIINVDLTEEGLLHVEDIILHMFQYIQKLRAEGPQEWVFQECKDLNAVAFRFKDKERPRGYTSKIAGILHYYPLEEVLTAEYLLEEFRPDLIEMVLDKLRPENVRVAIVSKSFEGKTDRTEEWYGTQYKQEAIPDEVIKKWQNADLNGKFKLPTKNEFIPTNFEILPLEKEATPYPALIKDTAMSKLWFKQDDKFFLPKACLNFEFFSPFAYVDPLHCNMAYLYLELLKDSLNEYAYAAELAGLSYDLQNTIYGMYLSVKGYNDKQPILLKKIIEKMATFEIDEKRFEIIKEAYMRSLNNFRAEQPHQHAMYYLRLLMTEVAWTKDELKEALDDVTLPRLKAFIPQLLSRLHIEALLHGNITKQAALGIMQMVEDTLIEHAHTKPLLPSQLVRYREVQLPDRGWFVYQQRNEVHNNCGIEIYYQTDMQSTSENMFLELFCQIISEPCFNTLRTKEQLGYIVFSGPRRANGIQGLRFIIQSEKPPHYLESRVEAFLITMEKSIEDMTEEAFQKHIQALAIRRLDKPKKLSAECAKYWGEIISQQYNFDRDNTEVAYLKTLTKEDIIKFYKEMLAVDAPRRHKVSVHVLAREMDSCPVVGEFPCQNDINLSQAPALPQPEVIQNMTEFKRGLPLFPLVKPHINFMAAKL
# [10] = Counterscreen for IDE inhibitors: Luminescence-based cell-based high throughput dose response assay to identify compounds that are cytotoxic to HEK cells. [Related pubchem assays: 434962 (Primary screen (IDE inhibitors in singlicate)), 449730 (Counterscreen (Cytotoxicity in triplicate)), 435028 (Confirmation (IDE inhibitors in triplicate)) …; assay type: functional; conditions: HEK293
# [11] = system: HEK293; test: cells; conditions: Homo sapiens;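 note: cells exposed to compound for 14 hours overnight before viability readout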
# [12] = target: Nucleotide-binding oligomerization domain-containing protein 2 (Homo sapiens, UniProt Q9HC29); test: PubChem AID 2334; assay type: functional
# [13] = target: Tumor necrosis factor (Homo sapiens, UniProt P01375); test: TNFa-triggered NF-kB activation inhibitors, SAR follow-up, cell-based, revised (AID 2337); assay type: functional
# [14] = target: T4, Nucleotide-binding oligomerization domain-containing protein 1 (Homo sapiens, UniProt Q9Y239); test: NOD1 signaling inhibitors, SAR follow-up, revised (AID 2333); assay type: functional
# T4 sequence (Q9Y239 whole entry): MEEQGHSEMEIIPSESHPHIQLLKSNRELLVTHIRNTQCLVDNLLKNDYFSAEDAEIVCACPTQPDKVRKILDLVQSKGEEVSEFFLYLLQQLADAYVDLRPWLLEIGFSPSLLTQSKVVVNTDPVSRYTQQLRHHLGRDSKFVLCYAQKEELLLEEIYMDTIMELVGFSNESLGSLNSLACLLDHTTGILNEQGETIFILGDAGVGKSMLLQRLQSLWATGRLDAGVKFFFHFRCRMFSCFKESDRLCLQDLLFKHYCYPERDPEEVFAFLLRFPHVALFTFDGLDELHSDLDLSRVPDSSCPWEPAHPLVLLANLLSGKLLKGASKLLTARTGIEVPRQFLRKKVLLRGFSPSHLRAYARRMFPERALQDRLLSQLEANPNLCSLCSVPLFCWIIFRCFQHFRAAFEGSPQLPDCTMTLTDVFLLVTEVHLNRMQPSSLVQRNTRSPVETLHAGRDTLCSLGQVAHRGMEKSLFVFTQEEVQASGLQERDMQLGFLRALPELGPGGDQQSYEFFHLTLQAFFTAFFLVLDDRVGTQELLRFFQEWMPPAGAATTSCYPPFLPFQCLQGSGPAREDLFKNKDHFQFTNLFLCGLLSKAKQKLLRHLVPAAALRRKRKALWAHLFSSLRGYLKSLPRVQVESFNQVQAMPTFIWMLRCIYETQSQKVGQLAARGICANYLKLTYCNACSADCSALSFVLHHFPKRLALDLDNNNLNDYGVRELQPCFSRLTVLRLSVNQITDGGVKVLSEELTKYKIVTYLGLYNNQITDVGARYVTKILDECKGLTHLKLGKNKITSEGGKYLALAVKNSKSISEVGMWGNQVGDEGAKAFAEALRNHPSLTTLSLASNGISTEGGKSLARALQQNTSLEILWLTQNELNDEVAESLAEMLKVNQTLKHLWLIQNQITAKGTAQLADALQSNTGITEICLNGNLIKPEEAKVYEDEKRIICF
# [15] = target: T5, Corticotropin-releasing factor receptor 2/Corticotropin-releasing factor-binding protein (Homo sapiens, UniProt P24387+Q13324); test: activators of CRF receptor 2 with binding protein – uHTS hits, confirmation (AID 602473); assay type: functional; conditions: read-out: EC50_Mean
# T5 sequence (Q13324 whole entry): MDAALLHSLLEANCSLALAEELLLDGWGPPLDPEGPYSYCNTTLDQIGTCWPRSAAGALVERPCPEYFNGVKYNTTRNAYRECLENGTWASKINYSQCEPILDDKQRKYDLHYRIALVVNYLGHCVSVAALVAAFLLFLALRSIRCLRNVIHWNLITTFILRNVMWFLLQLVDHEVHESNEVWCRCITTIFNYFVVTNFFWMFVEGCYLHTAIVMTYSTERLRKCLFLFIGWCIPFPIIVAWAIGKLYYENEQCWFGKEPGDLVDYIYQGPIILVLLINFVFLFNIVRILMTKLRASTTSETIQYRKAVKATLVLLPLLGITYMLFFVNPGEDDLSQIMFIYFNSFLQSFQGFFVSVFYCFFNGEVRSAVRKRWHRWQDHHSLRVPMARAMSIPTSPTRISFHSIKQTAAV
# T5 sequence (P24387 whole entry): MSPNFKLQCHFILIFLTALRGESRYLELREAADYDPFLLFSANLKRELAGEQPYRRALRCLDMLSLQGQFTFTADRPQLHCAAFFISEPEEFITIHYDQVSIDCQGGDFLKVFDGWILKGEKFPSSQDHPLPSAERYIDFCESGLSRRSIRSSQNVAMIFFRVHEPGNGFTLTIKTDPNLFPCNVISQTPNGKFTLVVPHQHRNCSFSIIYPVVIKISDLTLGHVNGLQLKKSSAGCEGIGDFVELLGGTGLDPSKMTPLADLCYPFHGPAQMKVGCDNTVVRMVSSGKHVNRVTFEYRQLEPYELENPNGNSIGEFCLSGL
# [16] = system: Vero; test: host cell cytotoxicity of antiviral hits, dose response, cytotoxicity control for West Nile virus antiviral project, secondary assay (AID 1650); assay type: functional; conditions: Chlorocebus sabaeus
# [17] = cells
# [18] = target: T5, Corticotropin-releasing factor receptor 2/Corticotropin-releasing factor-binding protein; test: Dose Response confirmation of uHTS hits for small molecule antagonists of the CRF-binding protein and CRF-R2 receptor complex.; assay type: functional; conditions: read-out: IC50_Mean
# [19] = HEp-2 cell cytotoxicity, dose response, cytotoxicity control for RSV inhibitor project, HTS (AID 2410); assay type: functional; conditions: human respiratory syncytial virus
# [20] = cytotoxicity toward NIH3T3 fibroblasts, dose response, counter-screen, cell-based, ATP luminescence, mouse fibroblasts (AID 2010); assay type: functional;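 note: cells exposed to compound for about 90 hours before reading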
# [21] = inhibitors of intracellular T. cruzi replication, confirmation, NIH3T3 host cells, beta-gal luminescence (AID 2044); assay type: functional, cell-based;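 note: intracellular parasites grown in NIH/3T3 mouse fibroblasts as host cells; luminescent beta-galactosidase reporter signal from transgenic T. cruzi replicating inside host cells; inhibitors lower the luminescence signal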
# [22] = cells; remark: listed apart in the source
# [23] = target: T6, RNA-binding protein pos-1 (Caenorhabditis elegans, UniProt G5EF15); test: inhibitors of POS-1/mex-3 RNA binding, dose response, biochemical, fluorescence polarization (AID 1964);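 note: purified POS-1 fused to maltose binding protein made in E. coli; potency of compounds blocking POS-1 binding to fluorescent RNA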
# T6 sequence (G5EF15 whole entry): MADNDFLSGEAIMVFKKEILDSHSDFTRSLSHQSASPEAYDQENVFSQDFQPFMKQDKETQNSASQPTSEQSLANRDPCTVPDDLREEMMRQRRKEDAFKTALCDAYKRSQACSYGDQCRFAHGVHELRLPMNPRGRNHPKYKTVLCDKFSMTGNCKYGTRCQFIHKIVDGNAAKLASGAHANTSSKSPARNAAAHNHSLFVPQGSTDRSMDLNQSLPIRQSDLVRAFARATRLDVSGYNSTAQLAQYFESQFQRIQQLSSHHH
# [24] = target: T7, Zinc finger protein mex-5 (Caenorhabditis elegans, UniProt Q9XUB2); test: MEX-5/TCR-2 RNA interaction inhibitors, dose response, biochemical, C. elegans, fluorescence polarization (AID 1960)
# T7 sequence (Q9XUB2 whole entry): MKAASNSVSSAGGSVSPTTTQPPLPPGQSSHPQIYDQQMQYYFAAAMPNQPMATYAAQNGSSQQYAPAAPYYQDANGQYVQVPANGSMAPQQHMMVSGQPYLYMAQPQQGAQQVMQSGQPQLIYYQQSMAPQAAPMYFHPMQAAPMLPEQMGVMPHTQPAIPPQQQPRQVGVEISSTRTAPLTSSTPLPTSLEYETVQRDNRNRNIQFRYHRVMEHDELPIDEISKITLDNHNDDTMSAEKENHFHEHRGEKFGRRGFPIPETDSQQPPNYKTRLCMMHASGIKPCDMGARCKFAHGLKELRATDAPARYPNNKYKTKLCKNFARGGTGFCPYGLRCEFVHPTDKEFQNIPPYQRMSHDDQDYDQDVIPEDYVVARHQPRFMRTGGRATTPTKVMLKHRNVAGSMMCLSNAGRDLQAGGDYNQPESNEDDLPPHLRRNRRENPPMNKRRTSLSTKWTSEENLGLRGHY
# [25] = Luminescence Cell-Based Dose Retest to Confirm Inhibitors of Cancer Stem Cells. [Related pubchem assays (depositor defined):AID2717, AID2721]; assay type: functional; conditions: Homo sapiens
# [26] = target: Neurotensin receptor type 1 (Homo sapiens, UniProt P30989); assay type: functional;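 note: Image-based confirmatory dose-response assay measuring agonist activity at NTR1; NTR1-expressing U2OS osteosarcoma cells imaged for beta-arrestin GFP spot formation; agonist potency where compounds increase beta-arrestin recruitment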
# 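Throughout, for AC50: cells exposed to compound for roughly 70 hours or longer before luminescence read.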
# T1 sequence (Q92731 whole entry): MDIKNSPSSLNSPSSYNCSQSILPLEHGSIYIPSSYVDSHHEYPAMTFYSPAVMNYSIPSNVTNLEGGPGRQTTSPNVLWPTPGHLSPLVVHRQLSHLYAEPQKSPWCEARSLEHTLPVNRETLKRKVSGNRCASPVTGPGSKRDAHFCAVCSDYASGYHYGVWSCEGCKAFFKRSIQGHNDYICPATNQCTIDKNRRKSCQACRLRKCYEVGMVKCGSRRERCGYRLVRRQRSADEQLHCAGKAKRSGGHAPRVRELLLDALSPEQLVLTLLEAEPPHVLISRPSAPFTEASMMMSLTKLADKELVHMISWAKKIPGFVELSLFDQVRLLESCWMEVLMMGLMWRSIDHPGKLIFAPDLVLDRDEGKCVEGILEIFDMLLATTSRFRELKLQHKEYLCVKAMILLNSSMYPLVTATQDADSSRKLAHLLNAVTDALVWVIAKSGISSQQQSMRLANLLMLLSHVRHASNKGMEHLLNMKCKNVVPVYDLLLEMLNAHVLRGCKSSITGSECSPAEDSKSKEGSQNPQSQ
# Chain of Luciferin 4-monooxygenase (P08659 whole entry): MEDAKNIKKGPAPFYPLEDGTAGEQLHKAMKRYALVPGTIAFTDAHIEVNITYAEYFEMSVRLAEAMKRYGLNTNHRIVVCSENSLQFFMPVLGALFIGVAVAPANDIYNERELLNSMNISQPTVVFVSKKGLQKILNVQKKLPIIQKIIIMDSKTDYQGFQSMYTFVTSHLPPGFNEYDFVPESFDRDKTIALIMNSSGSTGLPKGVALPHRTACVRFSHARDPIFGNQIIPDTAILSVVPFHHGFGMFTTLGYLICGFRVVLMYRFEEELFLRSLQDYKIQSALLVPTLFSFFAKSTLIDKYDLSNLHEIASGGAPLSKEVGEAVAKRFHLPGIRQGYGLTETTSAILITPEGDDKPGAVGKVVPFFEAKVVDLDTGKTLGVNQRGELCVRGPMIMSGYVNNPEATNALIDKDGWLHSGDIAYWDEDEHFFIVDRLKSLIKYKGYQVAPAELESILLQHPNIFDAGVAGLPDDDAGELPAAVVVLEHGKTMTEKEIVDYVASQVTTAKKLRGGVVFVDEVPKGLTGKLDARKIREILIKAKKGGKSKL
# Chain of Nucleotide-binding oligomerization domain-containing protein 2 (Q9HC29 whole entry, the tested form may be a part): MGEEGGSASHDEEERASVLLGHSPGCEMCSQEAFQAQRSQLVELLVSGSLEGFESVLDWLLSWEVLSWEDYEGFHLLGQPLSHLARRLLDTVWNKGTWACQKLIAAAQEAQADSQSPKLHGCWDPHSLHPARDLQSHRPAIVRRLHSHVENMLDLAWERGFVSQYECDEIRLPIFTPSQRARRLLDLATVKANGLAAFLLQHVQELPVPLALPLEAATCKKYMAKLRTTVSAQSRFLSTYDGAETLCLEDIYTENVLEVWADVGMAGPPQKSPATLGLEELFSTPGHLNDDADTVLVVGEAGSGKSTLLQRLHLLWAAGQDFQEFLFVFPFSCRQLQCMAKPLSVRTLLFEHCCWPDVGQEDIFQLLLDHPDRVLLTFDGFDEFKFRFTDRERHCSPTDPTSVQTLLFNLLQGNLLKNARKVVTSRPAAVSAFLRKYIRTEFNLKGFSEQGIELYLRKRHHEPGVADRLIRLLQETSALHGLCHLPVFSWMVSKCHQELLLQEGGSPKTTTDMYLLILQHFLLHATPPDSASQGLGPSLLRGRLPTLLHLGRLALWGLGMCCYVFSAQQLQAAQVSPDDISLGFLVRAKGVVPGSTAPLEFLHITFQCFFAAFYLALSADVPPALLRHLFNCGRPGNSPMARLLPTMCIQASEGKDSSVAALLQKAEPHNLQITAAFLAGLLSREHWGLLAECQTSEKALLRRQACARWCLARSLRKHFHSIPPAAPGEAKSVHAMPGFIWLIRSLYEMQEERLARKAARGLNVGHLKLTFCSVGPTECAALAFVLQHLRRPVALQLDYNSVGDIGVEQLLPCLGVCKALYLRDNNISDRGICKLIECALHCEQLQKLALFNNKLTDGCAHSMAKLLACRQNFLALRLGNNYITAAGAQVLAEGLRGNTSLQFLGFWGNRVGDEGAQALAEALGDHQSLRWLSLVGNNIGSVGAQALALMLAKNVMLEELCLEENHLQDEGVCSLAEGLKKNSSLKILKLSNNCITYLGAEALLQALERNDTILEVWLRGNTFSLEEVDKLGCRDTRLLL
# Chain of Tumor necrosis factor (P01375 whole entry, the tested form may be a part): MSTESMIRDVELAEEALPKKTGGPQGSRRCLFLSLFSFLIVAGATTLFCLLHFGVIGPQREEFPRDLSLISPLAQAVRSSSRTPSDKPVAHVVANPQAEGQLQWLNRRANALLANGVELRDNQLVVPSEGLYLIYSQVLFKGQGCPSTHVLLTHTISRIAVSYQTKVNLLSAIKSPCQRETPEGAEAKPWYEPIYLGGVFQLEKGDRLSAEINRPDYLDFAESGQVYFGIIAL
# Chain of Neurotensin receptor type 1 (P30989 whole entry): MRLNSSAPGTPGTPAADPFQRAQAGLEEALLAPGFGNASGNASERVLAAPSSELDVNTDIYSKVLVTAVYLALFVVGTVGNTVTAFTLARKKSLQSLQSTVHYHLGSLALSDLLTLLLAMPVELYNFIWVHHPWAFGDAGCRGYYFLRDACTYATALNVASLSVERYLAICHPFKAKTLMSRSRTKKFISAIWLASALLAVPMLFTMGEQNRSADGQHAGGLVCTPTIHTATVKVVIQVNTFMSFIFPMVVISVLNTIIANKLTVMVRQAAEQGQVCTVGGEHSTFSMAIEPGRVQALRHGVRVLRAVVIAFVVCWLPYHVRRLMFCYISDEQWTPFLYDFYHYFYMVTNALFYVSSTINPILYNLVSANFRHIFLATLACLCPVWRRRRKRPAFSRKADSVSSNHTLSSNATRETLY
compound,measurement,setting,value
CCS(=O)(=O)N1Cc2ccccc2CC1C(=O)N1CCN(c2cccc(C)c2C)CC1 (stereo not drawn),IC50,[1],> 50 µM (not active)
same,IC50,[2],80 µM (inactive)
same,IC50,[3],2.96 µM (not active)
Cc1nccc(-c2ccc(-n3c(C)ccc3C)cc2)n1,IC50,[4],> 100 µM (active)
Cn1ccnc1SCc1cn2cc(Br)ccc2n1,EC50,[5],7.92 µM (active)
same,EC50,[6],38.1 µM (active)
same,EC50,[7],> 50 µM (not active)
same,EC50,[8],7.22 µM (inconclusive)
Cc1cccc(C(=O)Nc2ccnc(-c3ccncc3)n2)c1,IC50,[9],7.39 µM (active)
same,IC50,[10],22.9 µM (not active)
COC(=O)c1c(NC(=O)c2cccc(F)c2)sc2c1CCC(C)C2 (stereo not drawn),IC50,[11],> 20 µM (inactive)
same,IC50,[12],> 20 µM (inactive)
same,IC50,[13],> 20 µM (inactive)
same,IC50,[14],> 20 µM (inactive)
O=C(CCc1nc(-c2cccs2)no1)Nc1cnc2ccccc2c1,IC50,[4],> 100 µM (active)
CNC(=O)c1c(NC(=O)c2nc3ccccc3s2)sc2c1CCC2,IC50,[1],> 50 µM (not active)
same,IC50,[3],< 0.023 µM (not active)
Cc1cc(=O)oc2c1ccc1oc(/C(=N/O)c3ccccc3)c(C)c12,EC50,[15],> 53 µM (inactive)
same,CC50,[16],18.1 µM (active)
same,IC50,[17],18.3 µM (active)
same,IC50,[18],24.5 µM (active)
same,CC50,[19],< 0.1 µM (active)
CCc1c(C)c(C#N)c2nc3ccccc3n2c1NCCN(C)C,EC50,[20],> 30 µM (not active)
same,EC50,[21],< 0.1 µM (active)
same,EC50,[22],0.014 µM (active)
O=C1CCC/C(=N/NC(=O)c2sc3ccccc3c2Cl)C1,EC50,[23],22 µM (active)
same,EC50,[24],20.5 µM (active)
same,IC50,[9],26.3 µM (not active)
same,IC50,[10],> 55.7 µM (not active)
Oc1ccc(-c2cc(-c3ccc(O)cc3)nc(-c3ccccc3)n2)cc1,EC50,[20],> 60 µM (not active)
same,EC50,[21],3.86 µM (active)
same,AC50,[25],1.81 µM (active)
same,EC50,[26],19.4 µM (active)

# From ChEMBL document CHEMBL1201862, “PubChem BioAssay data set” (2004)
